How the values were obtained:
[1] = target: T1, c-RAF_h (Homo sapiens, UniProt P04049); assay: SelectScreen kinase assay; format: biochemical; details: 100 µM ATP, read-out: % control
T1 construct: purchased Life Technologies (Invitrogen) SelectScreen, Z'-LYTE / Adapta
Protocol: (§1) Syk kinase mode of inhibition studies, including parameters described in Fig 1, were conducted on the LC3000 platform by Caliper Life Sciences (Hopkinton, MA) according to standard protocols developed by the supplier. […] Non-kinase enzyme assays and GPCR, ion channel, and transporter binding assays were run by CEREP (France). Non-GLP manual patch clamp hERG assays were run by ChanTest (Cleveland, Ohio). Vivid® Assay kits (Life Technologies) were used to measure the cytochrome P450 inhibition of the compound against CYP3A, CYP2C9, CYP2C19, CYP2D6, and CYP1A2, as described.
(§2) Kinase activity was measured using either the Z’-Lyte® or the Adapta® protocols as part of the SelectScreen™ profiling service offered at Life Technologies (Grand Island, NY). For the single point measurements (Part A), CC-509 was kept constant at 3 µM while ATP concentrations [ATP] used were at the KM for ATP (KM ATP) for that specific enyzme, at 10 or 100 µM ATP (10 ATP or 100 ATP, respectively), as indicated. Values expressed as percent control (% control) relative to DMSO-only wells (uninhibited, 100%).
(§3) Kinase activity was measured using either the Z’-Lyte® or the Adapta® protocols as part of the SelectScreen™ profiling service offered at Life Technologies (Grand Island, NY). […] Values expressed as percent control (% control) relative to DMSO-only wells (uninhibited, 100%).

[2] = target: T2, EphB3_h (Homo sapiens, UniProt P54753); assay: SelectScreen kinase assay; format: biochemical; details: KM ATP, read-out: % control
T2 construct: purchased Life Technologies (Invitrogen) SelectScreen, Z'-LYTE / Adapta
Protocol: as §1, §2, §3

[3] = target: Syk (Homo sapiens, UniProt P43405); assay: Syk HTRF assay; format: biochemical; parameters: purchased Carna Biosciences 08-176; details: in-house, mean ± SD, n = 8
Protocol: CC-509 was prepared at a concentration of 1.5 mM in dimethyl sulfoxide (DMSO) followed by 3-fold dilutions in Greiner 384 well polypropylene plates. […] Time resolved fluorescence was read in assay plates on a PerkinElmer EnVision. […] The IC50 value was determined as described in the data fitting section below.
For the TEL-Syk assay, the intensity values for the 700 and 800 channel were exported as text files in ActivityBase (IDBS, Guildford, UK) to derive the ratios that reflect kinase activity. […] For the JAK2 HEL and Ramos NFAT β-lactamase assays, the fluorescence values obtained at 460 nm and 530 nm were exported into ActivityBase to calculate response ratios. […] Evans blue dye extravasation was expressed as mean ± SEM and % inhibition for the test article groups was normalized to the cromolyn positive control. […] The mean data from each group was plotted and either the AUC(day 11–18) or % inhibition on day 18 was calculated. Data is expressed as mean ± SEM of each group with n = 6–12. […]

[4] = tested on: rat passive cutaneous anaphylaxis model; assay: rat passive cutaneous anaphylaxis (PCA) model; format: in vivo
Protocol: On day 0, male CD-IGS rats (170 – 190g; Charles River Laboratories) were anesthetized with isofluorane, their dorsal region shaved and 50 μl Anti-DNP-IgE (Clone SPE-7, Sigma, St. Louis, MO) that had been diluted 1:1000 in saline was injected via the intradermal route at 3 individual spots along the right side of the back. Saline was injected via the intradermal route at 3 individual spots along the left side of the back as a sham control. Twenty-four hours later, 200 μl of BSA-DNP (Calbiochem, San Diego, CA), prepared (1 mg prepared in a 2% solution of Evans blue dye: Sigma Chemicals, St. Louis, MO) was injected via the IV route via the tail vein. Thirty minutes after the BSA-DNP challenge the experiment was terminated and skin samples from the middle of each injection site taken for Evans blue dye measurement at an OD measurement at 620nm on a plate reader following incubation (2h at 90°C) and homogenization in formamide (Sigma Chemicals, St. Louis, MO). Vehicle (20% Captisol® (Captisol), PO), the positive control (Cromolyn: Sigma Chemicals, St. Louis, MO 100mg/kg, 2mL/kg, IV) or CC0484509 (3 and 10mg/kg, PO) were dosed 1h prior to the IV challenge with BSA-DNP.
For the TEL-Syk assay, the intensity values for the 700 and 800 channel were exported as text files in ActivityBase (IDBS, Guildford, UK) to derive the ratios that reflect kinase activity. For LAD2 experiments, enzyme activity values were exported as text files into ActivityBase to calculate “percent release” according to the formula: 100* supernatant OD405/ (supernatant OD405 + (pellet OD405*pellet dilution factor)). For the basophil and B-cells assays, flow cytometry data was exported from the FACS Array and processed using FloJo software package (TreeStar, Inc., Ashland, Oregon). For the JAK2 HEL and Ramos NFAT β-lactamase assays, the fluorescence values obtained at 460 nm and 530 nm were exported into ActivityBase to calculate response ratios. For the neutrophil, macrophage, KDR, and JAK1/3 assays, raw values were exported into ActivityBase to calculate percent inhibition. All IC50 calculations were generated using XLfit (IDBS, Guildford, UK) algorithm 205 within Excel. For PCA, the OD from the saline injected site was subtracted from the OD from the anti-DNP IgE injected site. Evans blue dye extravasation was expressed as mean ± SEM and % inhibition for the test article groups was normalized to the cromolyn positive control. For the CIA model paw measurements (left and right ankle diameter) were taken for each individual animal and averaged. The mean data from each group was plotted and either the AUC(day 11–18) or % inhibition on day 18 was calculated. Data is expressed as mean ± SEM of each group with n = 6–12. […]

[5] = tested on: rat collagen-induced arthritis model; details: 10 or 30 mg/kg b.i.d.; cited from earlier work

T1 sequence (P04049 whole entry): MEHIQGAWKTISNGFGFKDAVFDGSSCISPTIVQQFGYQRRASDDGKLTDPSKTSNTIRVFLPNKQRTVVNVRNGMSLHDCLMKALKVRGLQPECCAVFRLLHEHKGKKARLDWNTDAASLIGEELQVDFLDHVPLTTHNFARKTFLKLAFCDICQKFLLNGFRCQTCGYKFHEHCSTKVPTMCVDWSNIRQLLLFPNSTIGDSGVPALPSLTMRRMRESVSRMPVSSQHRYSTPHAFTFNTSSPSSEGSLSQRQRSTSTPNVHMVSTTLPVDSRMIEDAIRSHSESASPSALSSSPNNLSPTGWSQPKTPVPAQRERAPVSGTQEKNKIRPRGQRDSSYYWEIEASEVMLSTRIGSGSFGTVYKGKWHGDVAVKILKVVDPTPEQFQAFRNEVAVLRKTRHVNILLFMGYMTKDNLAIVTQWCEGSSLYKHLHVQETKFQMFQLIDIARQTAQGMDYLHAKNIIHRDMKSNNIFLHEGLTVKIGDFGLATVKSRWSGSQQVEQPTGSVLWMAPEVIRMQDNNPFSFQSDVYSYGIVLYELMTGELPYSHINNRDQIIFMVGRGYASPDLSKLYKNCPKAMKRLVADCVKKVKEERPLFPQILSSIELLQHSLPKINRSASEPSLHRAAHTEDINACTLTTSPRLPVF
T2 sequence (P54753 34-998): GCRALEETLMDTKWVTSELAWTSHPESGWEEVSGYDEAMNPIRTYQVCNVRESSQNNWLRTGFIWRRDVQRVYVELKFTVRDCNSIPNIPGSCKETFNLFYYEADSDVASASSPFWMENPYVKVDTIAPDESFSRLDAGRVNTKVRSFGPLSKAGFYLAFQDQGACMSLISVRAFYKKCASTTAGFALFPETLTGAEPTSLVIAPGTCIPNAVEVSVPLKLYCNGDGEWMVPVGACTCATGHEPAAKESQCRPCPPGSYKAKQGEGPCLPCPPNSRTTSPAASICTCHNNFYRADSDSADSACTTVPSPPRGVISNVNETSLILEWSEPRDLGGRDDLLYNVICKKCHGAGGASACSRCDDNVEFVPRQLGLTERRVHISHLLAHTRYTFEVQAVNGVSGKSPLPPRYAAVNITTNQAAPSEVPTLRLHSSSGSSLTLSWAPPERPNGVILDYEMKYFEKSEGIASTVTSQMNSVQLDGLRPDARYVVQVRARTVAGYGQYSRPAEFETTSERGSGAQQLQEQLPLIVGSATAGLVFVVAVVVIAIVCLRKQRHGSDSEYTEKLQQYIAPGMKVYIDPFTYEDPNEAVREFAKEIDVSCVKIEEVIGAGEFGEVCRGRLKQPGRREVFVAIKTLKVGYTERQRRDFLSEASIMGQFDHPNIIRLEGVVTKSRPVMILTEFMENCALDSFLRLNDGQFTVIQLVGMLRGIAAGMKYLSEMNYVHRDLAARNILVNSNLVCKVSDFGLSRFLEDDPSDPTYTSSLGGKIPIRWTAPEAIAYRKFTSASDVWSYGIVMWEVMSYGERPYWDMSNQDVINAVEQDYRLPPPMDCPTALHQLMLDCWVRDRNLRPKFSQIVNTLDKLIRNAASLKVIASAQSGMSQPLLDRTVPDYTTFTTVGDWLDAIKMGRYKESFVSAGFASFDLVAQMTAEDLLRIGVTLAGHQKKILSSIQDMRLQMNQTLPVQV

Compound `c1cc(CC2CCOCC2)n2nc(Nc3ccc4c(NC5CCOCC5)n[nH]c4c3)nc2c1` [CC-509, [3-(2H-3,4,5,6-tetrahydropyran-4-ylamino)(1H-indazol-6-yl)][5-(2H-3,4,5,6-tetrahydropyran-4-ylmethyl)(2H-1,2,4-triazolo[1,5-a]pyridin-2-yl)]amine] has a remaining activity at 3 µM [1] of 70%, a remaining activity at 3 µM [2] of 42% and an IC50 [3] of 26 ± 6 nM. The “inhibition of skin edema, normalized to cromolyn” value ([4]; 3 mg/kg PO, not statistically significant) was 26%, the “inhibition of skin edema, normalized to cromolyn” value ([4]; 10 mg/kg PO, p<0.01) was 81% and the ED50 ([4]; Rattus norvegicus, PCA model, dye extravasation) was about 5 mg/kg.
In the case of `COc1cc(Nc2ncc(F)c(Nc3ccc4c(n3)NC(=O)C(C)(C)O4)n2)cc(OC)c1OC` [R406, reference compound], the “clinical paw score in rat CIA” value [5] is given as “significantly reduced”.

Source: paper PMC4710522, “A Novel Triazolopyridine-Based Spleen Tyrosine Kinase Inhibitor That Arrests Joint Inflammation” (PLoS ONE, 2016)
